Measured values published in DBAASP.
≈ marks a conversion by molar mass, not a printed value. Each block holds one molecule with its values, some of them ahead of it.

Legend:
Test in all cases: ≥ marks a high value that may be exact or a test limit, other limits are often not marked, values filed in µg/mL are converted to µM
Streptococcus mutans = tested on: Streptococcus mutans
[1] = tested on: Escherichia coli ATCC 25922
[2] = tested on: Klebsiella pneumoniae ATCC 13883
[3] = tested on: Pseudomonas aeruginosa PAO1
[4] = tested on: Staphylococcus aureus USA 300
Bacillus subtilis = tested on: Bacillus subtilis
[5] = tested on: Candida albicans F7-39/IDE99
Escherichia coli B = tested on: Escherichia coli B
Pseudomonas aeruginosa = tested on: Pseudomonas aeruginosa
Staphylococcus aureus = tested on: Staphylococcus aureus
[6] = tested on: Bacillus subtilis ATCC 23857
Escherichia coli ML-35 = tested on: Escherichia coli ML-35
[7] = tested on: Staphylococcus aureus ATCC 29213
[8] = tested on: Staphylococcus epidermidis ATCC 12228
[9] = tested on: Enterococcus faecalis ATCC 29212
[10] = tested on: Salmonella enterica subsp. enterica serovar Pullorum C79-13
[11] = tested on: Salmonella enterica subsp. enterica serovar Typhimurium C77-31
[12] = tested on: Candida albicans ATCC 2002
Candida albicans = tested on: Candida albicans
Escherichia coli = tested on: Escherichia coli
[13] = tested on: Pseudomonas aeruginosa CMCCB 10104
[14] = tested on: Staphylococcus aureus ATCC 25923

MIC (Streptococcus mutans): ≥ 191 µM
Compound: CC(C)C[C@H](NC(=O)[C@H](C)NC(=O)[C@H](Cc1cnc[nH]1)NC(=O)[C@H](CC(C)C)NC(=O)[C@H](CC(C)C)NC(=O)[C@H](Cc1cnc[nH]1)NC(=O)[C@@H](NC(=O)[C@H](C)N)[C@@H](C)O)C(=O)N[C@@H](CCC(N)=O)C(=O)N[C@@H](CCCN=C(N)N)C(=O)N[C@@H](Cc1ccccc1)C(N)=O [ATHLLHALQRF]

MIC [1]: > 25 µM | MIC [2]: 25 µM (≈ 33.5 µg/mL) | MIC [3]: > 25 µM | MIC [4]: 3.1 µM (≈ 4.15 µg/mL)
Compound: CC(C)C[C@H](NC(=O)[C@H](CC(C)C)NC(=O)CNC(=O)[C@H](CC(C)C)NC(=O)[C@H](CC(C)C)NC(=O)[C@H](CO)NC(=O)[C@H](CC(C)C)NC(=O)[C@H](CC(C)C)NC(=O)[C@H](CO)NC(=O)[C@H](CC(C)C)NC(=O)[C@H](CC(C)C)NC(=O)[C@H](CCCCN)NC(=O)CN)C(N)=O [GKLLSLLSLLGLL]

MIC [1]: > 25 µM | MIC [2]: 25 µM (≈ 32.4 µg/mL) | MIC [3]: > 25 µM | MIC [4]: 0.78 µM (≈ 1.01 µg/mL)
Compound: CC(C)C[C@H](NC(=O)[C@H](CC(C)C)NC(=O)[C@H](CCCCN)NC(=O)CNC(=O)[C@H](CC(C)C)NC(=O)[C@H](CC(C)C)NC(=O)[C@H](CO)NC(=O)[C@H](CC(C)C)NC(=O)[C@H](CC(C)C)NC(=O)[C@H](CO)NC(=O)[C@H](C)NC(=O)[C@H](CC(C)C)NC(=O)CN)C(N)=O [GLASLLSLLGKLL]

MIC [1]: 3.1 µM (≈ 4.02 µg/mL) | MIC [2]: 3.1 µM (≈ 4.02 µg/mL) | MIC [3]: 12.5 µM (≈ 16.2 µg/mL) | MIC [4]: 0.78 µM (≈ 1.01 µg/mL)
Compound: CC(C)C[C@H](NC(=O)[C@H](CC(C)C)NC(=O)[C@H](CCCCN)NC(=O)CNC(=O)[C@H](C)NC(=O)[C@H](CC(C)C)NC(=O)[C@H](CO)NC(=O)[C@H](CC(C)C)NC(=O)[C@H](CC(C)C)NC(=O)[C@H](CO)NC(=O)[C@H](CC(C)C)NC(=O)[C@H](CC(C)C)NC(=O)CN)C(N)=O [GLLSLLSLAGKLL]

MIC (Bacillus subtilis): 12 µM (≈ 33.2 µg/mL) | MIC [5]: ≥ 100 µM | MIC (Escherichia coli B): ≥ 100 µM | MIC (Pseudomonas aeruginosa): > 100 µM | MIC (Staphylococcus aureus): > 100 µM
Compound: CC[C@H](C)[C@H](NC(=O)[C@H](C)NC(=O)[C@H](C)NC(=O)[C@H](CC(C)C)NC(=O)[C@@H](NC(=O)[C@H](CCCCN)NC(=O)[C@H](CCCNC(=N)N)NC(=O)[C@@H]1CCCN1C(=O)[C@H](CC(C)C)NC(=O)CN)[C@@H](C)CC)C(=O)N[C@@H](C)C(=O)N[C@@H](CCCCN)C(=O)N[C@@H](CCCCN)C(=O)N[C@@H](CCCCN)C(=O)NCC(=O)N[C@@H](CCCCN)C(=O)N[C@@H](C)C(=O)N[C@@H](CCCCN)C(=O)NCC(=O)N1CCC[C@H]1C(=O)N[C@@H](CC(C)C)C(=O)N[C@@H](CCCCN)C(=O)N[C@@H](CC(C)C)C(=O)N[C@H](C(=O)N[C@@H](C)C(=O)N[C@@H](CCCCN)C(=O)N[C@@H](C)C(=O)O)C(C)C [GLPRKILAAIAKKKGKAKGPLKLVAKA]

MIC (Bacillus subtilis): 4 µM (≈ 11.6 µg/mL) | MIC [5]: ≥ 100 µM | MIC (Escherichia coli B): ≥ 100 µM | MIC (Pseudomonas aeruginosa): > 100 µM | MIC (Staphylococcus aureus): > 100 µM
Compound: CC[C@H](C)[C@@H]1NC(=O)[C@H](C)NC(=O)[C@@H](NC(=O)[C@H](CC(C)C)NC(=O)[C@@H](NC(=O)[C@H](CCCCN)NC(=O)[C@H](CCCN=C(N)N)NC(=O)[C@@H]2CCCN2C(=O)[C@H](CC(C)C)NC(=O)CN)[C@@H](C)CC)CSSC[C@@H](C(=O)N[C@@H](CCCCN)C(=O)NCC(=O)N2CCC[C@H]2C(=O)N[C@@H](CC(C)C)C(=O)N[C@@H](CCCCN)C(=O)N[C@@H](CC(C)C)C(=O)N[C@H](C(=O)N[C@H]2CSSC[C@@H](C(=O)O)NC(=O)[C@H](CCCCN)NC2=O)C(C)C)NC(=O)[C@H](CCCCN)NC(=O)CNC(=O)[C@H](CCCCN)NC(=O)[C@H](CCCCN)NC(=O)[C@H](CCCCN)NC(=O)[C@H](C)NC1=O [GLPRKILCAIAKKKGKCKGPLKLVCKC]

MIC [6]: ≥ 256 µM | MIC [1]: > 256 µM | MIC (Escherichia coli ML-35): ≥ 256 µM | MIC [7]: > 256 µM | MIC [8]: > 256 µM
Compound: CC[C@H](C)[C@H](N)C(=O)N[C@@H](CC(C)C)C(=O)NCC(=O)N[C@H](C(=O)N[C@H](C(=O)N[C@@H](CC(C)C)C(=O)NCC(=O)N1CCC[C@H]1C(=O)N[C@@H](CC(C)C)C(=O)N[C@@H](CCCCN)C(=O)NCC(=O)N[C@@H](CC(C)C)C(N)=O)[C@@H](C)CC)[C@@H](C)O [ILGTILGPLKGL]

MIC [6]: ≥ 256 µM | MIC [1]: > 256 µM | MIC (Escherichia coli ML-35): ≥ 256 µM | MIC [7]: > 256 µM | MIC [8]: > 256 µM
Compound: CC[C@H](C)[C@H](N)C(=O)N[C@@H](CC(C)C)C(=O)NCC(=O)N[C@H](C(=O)N[C@H](C(=O)N[C@@H](CC(C)C)C(=O)N1CCC[C@H]1C(=O)N[C@@H](CC(C)C)C(=O)N[C@@H](CC(C)C)C(=O)N[C@@H](CCCCN)C(=O)NCC(=O)N[C@@H](CC(C)C)C(N)=O)[C@@H](C)CC)[C@@H](C)O [ILGTILPLLKGL]

MIC (Streptococcus mutans): ≥ 90.1 µM
Compound: CC[C@H](C)[C@H](NC(=O)[C@H](CC(N)=O)NC(=O)[C@H](CCCCN)NC(=O)[C@H](CC(C)C)NC(=O)[C@H](CCC(N)=O)NC(=O)[C@H](CCC(N)=O)NC(=O)[C@@H](NC(=O)[C@H](CC(C)C)NC(=O)[C@@H](N)CCCCN)C(C)C)C(=O)N[C@@H](Cc1ccccc1)C(=O)N[C@@H](CCCN=C(N)N)C(=O)O [KLVQQLKNIFR]

MIC (Streptococcus mutans): 4.63 µM (≈ 8 µg/mL)
Compound: CC(C)C[C@H](NC(=O)[C@H](CC(C)C)NC(=O)[C@H](CCCCN)NC(=O)[C@H](CC(C)C)NC(=O)[C@H](CC(C)C)NC(=O)[C@H](CCCCN)NC(=O)[C@H](CCCCN)NC(=O)[C@H](CC(C)C)NC(=O)[C@H](CC(C)C)NC(=O)[C@H](CCCCN)NC(=O)[C@@H](N)CC(C)C)C(=O)N[C@@H](CCCCN)C(=O)N[C@@H](CCCCN)C(=O)N[C@@H](Cc1ccccc1)C(N)=O [LKLLKKLLKLLKKF]

MIC [9]: > 128 µM | MIC [1]: > 128 µM | MIC [10]: ≥ 128 µM | MIC [11]: ≥ 128 µM | MIC [7]: > 128 µM | MIC [8]: > 128 µM
Compound: CC(C)C[C@H](NC(=O)[C@@H](NC(=O)[C@@H](NC(=O)[C@@H](N)CC(C)C)C(C)C)[C@@H](C)O)C(=O)N[C@H](C(=O)N[C@@H](Cc1ccccc1)C(=O)N[C@H](C(=O)O)C(C)C)C(C)C [LVTLVFV]

MIC (Streptococcus mutans): ≥ 53.8 µM
Compound: NC(N)=NCCC[C@H](NC(=O)[C@H](Cc1c[nH]c2ccccc12)NC(=O)[C@H](Cc1c[nH]c2ccccc12)NC(=O)[C@H](Cc1ccccc1)NC(=O)[C@H](CCCN=C(N)N)NC(=O)[C@H](CCCN=C(N)N)NC(=O)[C@@H](N)CCCN=C(N)N)C(=O)O [RRRFWWR]

MIC (Streptococcus mutans): 13.3 µM (≈ 16 µg/mL)
Compound: NC(N)=NCCC[C@H](NC(=O)[C@H](CCCN=C(N)N)NC(=O)[C@H](Cc1c[nH]c2ccccc12)NC(=O)[C@H](Cc1c[nH]c2ccccc12)NC(=O)[C@H](CCCN=C(N)N)NC(=O)[C@@H](N)CCCN=C(N)N)C(=O)N[C@@H](Cc1c[nH]c2ccccc12)C(=O)O [RRWWRRW]

MIC (Bacillus subtilis): 0.677 µM (≈ 1.75 µg/mL) | MIC [12]: 4.02 µM (≈ 10.4 µg/mL) | MIC (Candida albicans): 0.677 µM (≈ 1.75 µg/mL) | MIC [1]: 4.02 µM (≈ 10.4 µg/mL) | MIC (Escherichia coli): 1.35 µM (≈ 3.5 µg/mL) | MIC [13]: 2.01 µM (≈ 5.2 µg/mL) | MIC [14]: 8.05 µM (≈ 20.8 µg/mL) | MIC (Staphylococcus aureus): 1.35 µM (≈ 3.5 µg/mL)
Compound: CC[C@H](C)[C@H](NC(=O)[C@@H](N)C(C)C)C(=O)N1CCC[C@H]1C(=O)N[C@@H](Cc1ccccc1)C(=O)N[C@H](C(=O)N[C@@H](C)C(=O)N[C@@H](CO)C(=O)N[C@H](C(=O)N[C@@H](C)C(=O)N[C@@H](C)C(=O)N[C@@H](CCC(=O)O)C(=O)N[C@@H](CCSC)C(=O)N[C@@H](CCSC)C(=O)N[C@@H](CCC(N)=O)C(=O)N[C@@H](Cc1cnc[nH]1)C(=O)N[C@H](C(=O)N[C@@H](Cc1ccc(O)cc1)C(=O)N[C@H]1CSSC[C@@H](C(=O)O)NC(=O)[C@H](CCCCN)NC(=O)[C@H](CCCCN)NC(=O)[C@H](CO)NC(=O)[C@H](C)NC(=O)[C@H](C)NC1=O)C(C)C)C(C)C)C(C)C [VIPFVASVAAEMMQHVYCAASKKC]
